Assays:
[1] = target: T1, Dual specificity calcium/calmodulin-dependent 3',5'-cyclic nucleotide phosphodiesterase 1B (Homo sapiens, UniProt Q01064); test: Inhibition of PDE1B (unknown origin)
[2] = target: cAMP and cAMP-inhibited cGMP 3',5'-cyclic phosphodiesterase 10A (Homo sapiens, UniProt Q9Y233); test: Inhibition of PDE10A (unknown origin)
[3] = target: T1, Dual specificity calcium/calmodulin-dependent 3',5'-cyclic nucleotide phosphodiesterase 1B; test: Inhibition of PDE1B (unknown origin) at 1 uM
Nucleic Acid [4] = test: Ratio of drug uptake from blood to plasma in mouse at 32 mg/kg, sc; assay type: ADME, organism-based; details: in vivo
[5] = Fraction unbound in rat at 10 mg/kg, sc; assay type: ADME, organism-based; details: in vivo
[6] = Half life in mouse at 32 mg/kg, sc; assay type: ADME, organism-based; details: in vivo
[7] = Tmax in rat at 10 mg/kg, sc; assay type: ADME, organism-based; details: in vivo
[8] = Ratio of drug uptake from blood to plasma in rat at 10 mg/kg, sc; assay type: ADME, organism-based; details: blood and plasma
[9] = Half life in rat at 10 mg/kg, sc; assay type: ADME, organism-based; details: in vivo
[10] = Tmax in mouse at 32 mg/kg, sc; assay type: ADME, organism-based; details: in vivo
Nucleic Acid [11] = test: Ratio of drug level in CSF to unbound fraction in rat plasma at 10 mg/kg, sc; assay type: ADME, organism-based; details: in vivo
[12] = Terminal half life in rat at 50 mg/kg, po; assay type: ADME, organism-based; details: in vivo, read-out: beta t1/2 (converted)
[13] = Fraction unbound in mouse at 32 mg/kg, sc; assay type: ADME, organism-based; details: in vivo
[14] = Cmax in rat at 50 mg/kg, po after 0.25 hrs; assay type: ADME, organism-based; design: dose 50 mg/kg, route oral; details: in vivo

T1 sequence (Q01064 whole entry): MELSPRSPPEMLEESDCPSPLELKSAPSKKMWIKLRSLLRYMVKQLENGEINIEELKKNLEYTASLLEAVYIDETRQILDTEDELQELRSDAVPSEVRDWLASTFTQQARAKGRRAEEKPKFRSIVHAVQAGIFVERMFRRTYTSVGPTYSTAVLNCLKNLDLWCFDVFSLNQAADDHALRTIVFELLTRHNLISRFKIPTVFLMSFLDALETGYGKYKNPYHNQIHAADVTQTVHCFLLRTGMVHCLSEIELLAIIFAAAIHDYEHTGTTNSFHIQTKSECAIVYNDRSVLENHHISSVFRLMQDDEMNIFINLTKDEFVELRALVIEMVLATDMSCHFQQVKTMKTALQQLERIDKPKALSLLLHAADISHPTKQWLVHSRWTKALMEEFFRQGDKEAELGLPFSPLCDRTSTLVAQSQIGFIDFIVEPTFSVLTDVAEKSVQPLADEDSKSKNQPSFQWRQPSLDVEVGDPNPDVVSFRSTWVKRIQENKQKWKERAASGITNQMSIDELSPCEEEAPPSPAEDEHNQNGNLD
Chain of cAMP and cAMP-inhibited cGMP 3',5'-cyclic phosphodiesterase 10A (Q9Y233 whole entry): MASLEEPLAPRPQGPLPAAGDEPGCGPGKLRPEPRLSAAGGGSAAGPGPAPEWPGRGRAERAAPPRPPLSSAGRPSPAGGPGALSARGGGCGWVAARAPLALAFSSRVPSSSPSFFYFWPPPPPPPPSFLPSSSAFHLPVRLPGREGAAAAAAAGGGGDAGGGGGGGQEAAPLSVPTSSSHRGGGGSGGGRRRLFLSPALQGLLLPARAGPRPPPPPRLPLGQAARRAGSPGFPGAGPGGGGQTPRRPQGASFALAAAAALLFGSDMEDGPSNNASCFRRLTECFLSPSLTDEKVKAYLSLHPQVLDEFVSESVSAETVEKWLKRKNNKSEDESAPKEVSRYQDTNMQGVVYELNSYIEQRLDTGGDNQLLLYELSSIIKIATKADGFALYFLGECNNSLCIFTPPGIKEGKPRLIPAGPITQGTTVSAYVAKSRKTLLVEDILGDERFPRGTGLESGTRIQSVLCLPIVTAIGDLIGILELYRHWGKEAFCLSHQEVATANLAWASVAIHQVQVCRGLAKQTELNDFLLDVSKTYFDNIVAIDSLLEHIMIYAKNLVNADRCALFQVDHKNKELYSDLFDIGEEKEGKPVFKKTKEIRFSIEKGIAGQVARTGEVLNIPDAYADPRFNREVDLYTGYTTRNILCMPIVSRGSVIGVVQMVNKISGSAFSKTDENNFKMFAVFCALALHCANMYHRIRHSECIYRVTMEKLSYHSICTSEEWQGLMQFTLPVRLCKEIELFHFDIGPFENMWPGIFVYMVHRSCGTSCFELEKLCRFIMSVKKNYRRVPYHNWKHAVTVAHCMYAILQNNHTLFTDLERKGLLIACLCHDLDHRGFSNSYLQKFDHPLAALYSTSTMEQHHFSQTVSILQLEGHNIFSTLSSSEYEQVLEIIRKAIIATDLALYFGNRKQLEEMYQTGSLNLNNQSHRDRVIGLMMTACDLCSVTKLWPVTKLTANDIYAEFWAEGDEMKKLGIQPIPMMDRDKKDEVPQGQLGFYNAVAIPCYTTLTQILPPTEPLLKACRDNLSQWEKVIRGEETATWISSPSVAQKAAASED

Row | IC50 [1] [nM] | inhibition [3] [%] | SMILES | also measured
1 | 83 |  | COc1cc2ncnc(C3CCc4ccc(Cl)cc43)c2cc1OC (stereo not drawn) | 
2 |  |  | COc1cc2nncc(N3CC(O)CC(c4ccccc4)C3)c2cc1OC (stereo not drawn) | IC50 [2]: 1 nM
3 | 230 |  | COc1cc2ncnc(C(C)c3cccc(Cl)c3)c2cc1OC (stereo not drawn) | 
4 |  | 0 | COc1cc2c(N3C[C@H](C)C[C@H](C)C3)nncc2c(OC)c1OC | 
5 | 4 |  | COc1ccc2c(C3CCc4ccc(Cl)cc43)ncnc2c1OC (stereo not drawn) | 
6 |  | 0 | COc1cc2ncnc(Cc3ccccc3)c2cc1OC | 
7 |  | 0 | COc1ccc2c(N3C[C@H](C)C[C@H](C)C3)ccnc2c1OC | 
8 |  | 24 | COc1cc2ncnc(Cc3cccc(Cl)c3)c2cc1OC | 
9 | 70 |  | COc1ccc2c(N3C[C@H](C)C[C@H](C)C3)ncnc2c1OC | 
10 |  |  | COc1cc2ncnc(N3CC(O)CC(c4ccccc4)C3)c2cc1OC (stereo not drawn) | IC50 [2]: 3 nM
11 |  |  | COc1cc2cnnc(N3CC(O)CC(c4ccccc4)C3)c2cc1OC (stereo not drawn) | IC50 [2]: 3 nM
12 | 458 |  | COc1ccc2c([C@@H]3CCc4ccc(Cl)cc43)nccc2c1OC | 
13 | 8 |  | COc1ccc2c(C3CCc4ccc(Br)cc43)ncnc2c1OC (stereo not drawn) | 
14 |  | 0 | COc1cc2c(N3C[C@H](C)C[C@H](C)C3)cnnc2c(OC)c1OC | 
15 |  |  | CCC(CC)Nc1ncnc2c(OC)c(OC)c(OC)cc12 | Ratio (Nucleic Acid [4]): 0.28; fraction unbound [5]: 0.1; half-life [6]: 120 min; Tmax [7]: 15 min; blood plasma ratio [8]: 0.4; half-life [9]: 39.6 min; Tmax [10]: 15 min; Ratio (Nucleic Acid [11]): 0.9; half-life [12]: 306 min; fraction unbound [13]: 0.18; Cmax [14]: 10.9 µM
16 | 38 |  | COc1ccc2c(C3CCc4ccc(F)cc43)ncnc2c1OC (stereo not drawn) | 
17 | 22 |  | COc1ccc2c(C(C)c3cccc(Cl)c3)ncnc2c1OC (stereo not drawn) | 
18 |  | 0 | COc1ccc2c(N3C[C@H](C)C[C@H](C)C3)nccc2c1OC | 

— ChEMBL document CHEMBL3600381, “Small-molecule phosphodiesterase probes: discovery of potent and selective CNS-penetrable quinazoline inhibitors of PDE1” (Medchemcomm, 2014)
